Data set [1] addresses T1, Intercellular adhesion molecule (ICAM-1), Integrin alpha-L/beta-2 (Homo sapiens, UniProt P05107+P20701). In words: Ability to block the adherence of leukocyte function-associated antigen-1 (LFA-1) expressing JY-8 cells and intercellular adhesion molecule (ICAM-1) by 50% in absence of serum. Format: cell-based.
In data set [2] the target is T2, Intercellular adhesion molecule (ICAM-1), Integrin alpha-L/beta-2 (Homo sapiens) (UniProt P20701+P05362+P05107). The note with it: JY-8.
Description: 70% inhibition of JY-8 cell adhesion to ICAM-1 via leukocyte function-associated antigen-1 (LFA-1) without serum
The target of data set [3] is T2, Intercellular adhesion molecule (ICAM-1), Integrin alpha-L/beta-2 (Homo sapiens). The following applies: JY-8. The source holds these as a separate data set.
Description: 80% inhibition of JY-8 cell adhesion to ICAM-1 via leukocyte function-associated antigen-1 (LFA-1) withouot serum
The target is the same in data set [4]. The note with it: JY-8. The source holds these as a separate data set.
Description: 70% inhibition of JY-8 cell adhesion to ICAM-1 via leukocyte function-associated antigen-1 (LFA-1) with 50% FBS
The target is the same in data set [5]. The note with it: 50% FBS.
Description: 80% inhibition of JY-8 cell adhesion to ICAM-1 via leukocyte function-associated antigen-1 (LFA-1) with 50% FBS
Data set [6] in a line: Half life of compound at 5 mg/kg after po administration was determined in rat. In kind it is ADME, organism-based. On the set-up: dose 5 mg/kg, route oral. The following applies: in vivo.
The nature of data set [7]: Cmax of compound at 5 mg/kg after po administration was determined in rat. In kind it is ADME, organism-based. Details: dose 5 mg/kg, route oral. The note with it: in vivo.
Data set [8] in a line: Oral bioavailability of compound at 5 mg/kg after po administration was determined in rat. Format: ADME, organism-based. The note with it: in vivo.
For data set [9], the target named is T1, Intercellular adhesion molecule (ICAM-1), Integrin alpha-L/beta-2. In words: 50% inhibition of JY-8 cell adhesion to ICAM-1 via leukocyte function-associated antigen-1 (LFA-1) with 50% FBS. Format: cell-based.

Structures are written as SMILES. pIC50: −log10 of the molar value.

T1 sequence (P20701 whole entry): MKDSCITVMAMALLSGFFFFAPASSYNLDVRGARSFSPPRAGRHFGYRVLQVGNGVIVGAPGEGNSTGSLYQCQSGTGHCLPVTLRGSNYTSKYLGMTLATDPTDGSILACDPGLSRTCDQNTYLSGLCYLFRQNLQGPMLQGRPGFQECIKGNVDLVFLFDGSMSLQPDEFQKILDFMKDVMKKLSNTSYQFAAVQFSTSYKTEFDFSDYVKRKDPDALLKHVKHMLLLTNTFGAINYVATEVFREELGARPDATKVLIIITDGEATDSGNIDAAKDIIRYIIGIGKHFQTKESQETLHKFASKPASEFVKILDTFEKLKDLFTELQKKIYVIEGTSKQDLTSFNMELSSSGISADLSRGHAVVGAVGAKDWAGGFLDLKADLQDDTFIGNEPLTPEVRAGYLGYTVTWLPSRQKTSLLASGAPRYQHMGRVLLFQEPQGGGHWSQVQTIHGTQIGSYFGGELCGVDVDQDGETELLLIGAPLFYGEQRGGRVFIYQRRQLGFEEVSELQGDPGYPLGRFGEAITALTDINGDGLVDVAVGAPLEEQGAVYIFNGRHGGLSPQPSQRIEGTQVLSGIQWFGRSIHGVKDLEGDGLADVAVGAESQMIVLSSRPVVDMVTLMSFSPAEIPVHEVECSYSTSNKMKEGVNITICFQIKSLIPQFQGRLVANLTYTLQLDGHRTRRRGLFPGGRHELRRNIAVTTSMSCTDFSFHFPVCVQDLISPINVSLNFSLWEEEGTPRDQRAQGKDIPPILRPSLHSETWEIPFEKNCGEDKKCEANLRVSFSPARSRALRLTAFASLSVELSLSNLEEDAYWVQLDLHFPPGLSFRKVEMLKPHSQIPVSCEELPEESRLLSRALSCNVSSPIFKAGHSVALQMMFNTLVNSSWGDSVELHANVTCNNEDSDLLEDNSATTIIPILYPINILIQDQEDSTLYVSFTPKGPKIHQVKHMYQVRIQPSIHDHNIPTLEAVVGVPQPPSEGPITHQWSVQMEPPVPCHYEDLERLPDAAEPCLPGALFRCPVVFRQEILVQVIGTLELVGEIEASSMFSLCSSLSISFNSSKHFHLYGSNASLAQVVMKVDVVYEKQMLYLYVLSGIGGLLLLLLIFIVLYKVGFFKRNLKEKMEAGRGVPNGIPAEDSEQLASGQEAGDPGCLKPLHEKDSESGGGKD
T1 sequence (P05362 whole entry, further chain): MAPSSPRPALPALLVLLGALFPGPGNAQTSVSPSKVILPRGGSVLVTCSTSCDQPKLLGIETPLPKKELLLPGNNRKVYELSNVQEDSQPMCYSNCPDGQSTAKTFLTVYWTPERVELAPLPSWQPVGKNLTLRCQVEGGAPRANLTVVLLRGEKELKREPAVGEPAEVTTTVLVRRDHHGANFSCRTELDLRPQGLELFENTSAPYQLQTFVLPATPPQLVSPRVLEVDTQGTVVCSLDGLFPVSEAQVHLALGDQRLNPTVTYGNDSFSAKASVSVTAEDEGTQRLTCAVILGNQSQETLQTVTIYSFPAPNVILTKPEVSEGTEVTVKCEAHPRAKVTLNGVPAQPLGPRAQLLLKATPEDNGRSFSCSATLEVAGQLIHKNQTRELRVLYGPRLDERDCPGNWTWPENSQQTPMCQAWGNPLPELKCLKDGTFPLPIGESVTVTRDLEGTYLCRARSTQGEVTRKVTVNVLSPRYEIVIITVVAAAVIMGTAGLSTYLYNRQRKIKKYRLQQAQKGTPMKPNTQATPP
T1 sequence (P05107 whole entry): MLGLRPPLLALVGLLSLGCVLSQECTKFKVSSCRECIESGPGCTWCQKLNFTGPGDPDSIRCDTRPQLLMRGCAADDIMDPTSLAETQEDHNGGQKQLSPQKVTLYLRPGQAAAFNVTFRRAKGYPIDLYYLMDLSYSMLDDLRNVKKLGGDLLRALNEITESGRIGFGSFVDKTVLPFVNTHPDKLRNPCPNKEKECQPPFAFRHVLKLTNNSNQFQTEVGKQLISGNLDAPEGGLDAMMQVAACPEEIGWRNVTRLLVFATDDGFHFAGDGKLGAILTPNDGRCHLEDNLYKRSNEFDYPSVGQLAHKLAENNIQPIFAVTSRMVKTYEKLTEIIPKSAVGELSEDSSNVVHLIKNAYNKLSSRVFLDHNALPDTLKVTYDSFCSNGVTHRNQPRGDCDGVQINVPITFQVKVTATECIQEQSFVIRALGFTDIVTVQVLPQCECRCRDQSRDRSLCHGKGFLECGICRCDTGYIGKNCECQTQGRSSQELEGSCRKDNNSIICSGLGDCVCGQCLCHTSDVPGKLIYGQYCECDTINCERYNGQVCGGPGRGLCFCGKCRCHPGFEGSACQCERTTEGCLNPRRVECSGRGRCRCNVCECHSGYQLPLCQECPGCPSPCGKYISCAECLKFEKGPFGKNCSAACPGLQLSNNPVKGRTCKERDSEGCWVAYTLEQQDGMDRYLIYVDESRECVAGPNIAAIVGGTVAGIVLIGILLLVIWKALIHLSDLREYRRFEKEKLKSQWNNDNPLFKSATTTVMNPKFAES

Regarding `O=C(O)C1CCCN(c2ccccc2Sc2ccc(C3CC3C(=O)NCCCN3CCCC3=O)cc2C(F)(F)F)C1` (stereo unspecified), the pIC50 in data set [1] is 7.30.
The molecule `CC(C)c1ccccc1Sc1ccc(C2CC2C(=O)NCCCC(=O)O)c(Cl)c1Cl` (stereo in doubt; 15a) [listing 1 of 2 here] gave an IC70 in [2] of 16 nM. The same molecule came in with an IC80 in data set [3] of 9 nM.
Take `CC(C)c1ccccc1Sc1ccc(C2CC2C(=O)N2CCCC(C(=O)O)C2)c(Cl)c1Cl` (stereo in doubt): the pIC50 in data set [1] was 7.77.
On to `O=C(O)C1CCCN(c2ccccc2Sc2ccc(C3CC3C(=O)NCCCN3CCCC3=O)c(Cl)c2Cl)C1` (stereo in doubt; 30) [listing 1 of 2 here], for which the results for the 70% effect concentration (IC70) in data set [2] and in data set [4] were 10 nM and 89 nM, respectively. In addition, the IC80 came to 19 nM in data set [3] and 133 nM in data set [5].
With `CC(C)c1ccccc1Sc1ccc(C2CC2C(=O)NCC(=O)O)c(Cl)c1Cl` (single isomer, unassigned), the pIC50 in [1] is 7.48.
Molecule `O=C(O)C1CCCN(c2ccccc2Sc2ccc(C3CC3C(=O)NCCCN3CCCC3=O)c(Cl)c2Cl)C1` (stereo in doubt; 28) [listing 1 of 2 here] gave a half-life in data set [6] of 1.2 h. Besides, the peak level in data set [7] (Cmax) was 350 ng/mL. For the same molecule, the pIC50 in [1] was 8.00; in data set [9] it was 7.54. The same molecule gave a bioavailability in data set [8] of 27%.
In the case of `O=C(NCCCN1CCCC1=O)C1CC1c1ccc(Sc2ccccc2N2CCOCC2)c(C(F)(F)F)c1` (stereo unspecified), in data set [1], the pIC50 is 7.82.
Consider `O=C(O)C1CCCN(c2ccccc2Sc2ccc(C3CC3C(=O)NCCCN3CCCC3=O)c(Cl)c2Cl)C1` (stereo in doubt; 30) [listing 2 of 2 here], for which the pIC50 in data set [1] is 8.30; in [9], 7.57.
The molecule `CC(C)c1ccccc1Sc1ccc(C2CC2C(=O)NCCCN2CCCC2=O)c(Cl)c1Cl` (stereo in doubt; 12a) [listing 1 of 2 here] showed a pIC50 in data set [1] of 8.15.
Still for that read-out and setting: to `CCOC(=O)C1CCN(c2ccccc2Sc2ccc(C3CC3C(=O)NCCCN3CCCC3=O)cc2C(F)(F)F)CC1` (stereo unspecified) belongs 6.94.
Take `CC(C)c1ccccc1Sc1ccc(C2CC2C(=O)N2CCCC(C(=O)O)C2)c(Cl)c1Cl` (stereo in doubt; 17a) [listing 1 of 2 here]: in [2], it took 13 nM to reach the 70% level (IC70). In data set [3], the 80% effect level (IC80) was put at 25 nM.
Taken in the same sequence, the figures for `CC(C)c1ccccc1Sc1ccc(C2CC2C(=O)NCC(=O)O)c(Cl)c1Cl` (stereo in doubt; 13a) [listing 1 of 2 here] were 50 nM and 95 nM.
Consider `O=C(O)C1CCCN(c2ccccc2Sc2ccc(C3CC3C(=O)NCCCN3CCCC3=O)c(Cl)c2Cl)C1` (stereo in doubt; 27) [listing 1 of 2 here], for which the values for the pIC50 in data set [1] and in data set [9] were 7.82 and 7.48, respectively.
Take `CC(C)c1ccccc1Sc1ccc(C2CC2C(=O)N2CCCCC2C(=O)O)c(Cl)c1Cl` (stereo in doubt; 16a) [listing 1 of 2 here]: the results for the IC70 in data set [2] and in data set [4] were 55 nM and 3520 nM, respectively. For the same molecule, the IC80 was 110 nM in [3] and 8820 nM in [5].
Take `CC(C)c1ccccc1Sc1ccc(C2CC2C(=O)N2CCCCC2C(=O)O)c(Cl)c1Cl` (single isomer, unassigned): the pIC50 in data set [1] was 7.48.
On the same count and under the same terms, to `CC(C)c1ccccc1Sc1ccc(C2CC2C(=O)NCCCC(=O)O)c(Cl)c1Cl` (stereo in doubt; 15a) [listing 2 of 2 here] belongs 8.15; to `CC(C)c1ccccc1Sc1ccc(C2CC2C(=O)NCCCN2CCCC2=O)c(Cl)c1Cl` (stereo in doubt), 8.22.
On to `O=C(O)C1CCCN(c2ccccc2Sc2ccc(C3CC3C(=O)NCCCN3CCCC3=O)c(Cl)c2Cl)C1` (stereo in doubt; 28) [listing 2 of 2 here], for which the IC70 in [2] was found to be 21 nM; in data set [4], 116 nM. Also, the concentration for an effect of 80% (IC80) stood at 26 nM in data set [3] and 199 nM in [5].
Regarding `O=C(O)C1CCCN(c2ccccc2Sc2ccc(C3CC3C(=O)NCCCN3CCCC3=O)c(Cl)c2Cl)C1` (stereo in doubt; 27) [listing 2 of 2 here], the values for the IC70 in [2] and in data set [4] were 26 nM and 120 nM, respectively. Moreover, the 80% effect concentration (IC80) came to 40 nM in data set [3] and 210 nM in data set [5].
`CC(C)c1ccccc1Sc1ccc(C2CC2C(=O)N2CCCC(C(=O)O)C2)c(Cl)c1Cl` (stereo in doubt; 17a) [listing 2 of 2 here] showed a pIC50 in data set [1] of 8.22.
`CC(C)c1ccccc1Sc1ccc(C2CC2C(=O)N2CCC(C(=O)O)CC2)c(Cl)c1Cl` (single isomer, unassigned) showed a pIC50 in data set [1] of 7.68.
The same measure, in the same setting: to `CC(C)c1ccccc1Sc1ccc(C2CC2C(=O)NCC(=O)O)c(Cl)c1Cl` (stereo in doubt; 13a) [listing 2 of 2 here] belongs 7.92; to `O=C(NCCCN1CCCC1=O)C1CC1c1ccc(Sc2ccccc2N2CCCC2)c(C(F)(F)F)c1` (stereo unspecified), 7.49; to `CN1CCN(c2ccccc2Sc2ccc(C3CC3C(=O)NCCCN3CCCC3=O)cc2C(F)(F)F)CC1` (stereo unspecified), 6.70.
Consider `CC(C)c1ccccc1Sc1ccc(C2CC2C(=O)N2CCCCC2C(=O)O)c(Cl)c1Cl` (stereo in doubt; 16a) [listing 2 of 2 here], for which the results for the pIC50 in [1] and in data set [9] were 7.89 and 5.83, respectively.
In data set [1], `CC(C)c1ccccc1Sc1ccc(C2CC2C(=O)NCCC(=O)O)c(Cl)c1Cl` (single isomer, unassigned) showed a pIC50 of 7.47.
The same measure, in the same setting: to `CCOC(=O)C1CCCN(c2ccccc2Sc2ccc(C3CC3C(=O)NCCCN3CCCC3=O)cc2C(F)(F)F)C1` (stereo unspecified) belongs 7.00.
On the same count and under the same terms, to `O=C(NCCCN1CCCC1=O)C1CC1c1ccc(Sc2ccccc2N2CCCCC2)c(C(F)(F)F)c1` (stereo unspecified) belongs 7.40.
In [2], `CC(C)c1ccccc1Sc1ccc(C2CC2C(=O)N2CCC(C(=O)O)CC2)c(Cl)c1Cl` (stereo in doubt; 18a) [listing 1 of 2 here] returned an IC70 of 24 nM. This molecule returned an IC80 in [3] of 54 nM.
With `O=C(O)C1CCN(c2ccccc2Sc2ccc(C3CC3C(=O)NCCCN3CCCC3=O)cc2C(F)(F)F)CC1` (stereo unspecified), the pIC50 in [1] is 6.21.
Still for that read-out and setting: to `CC(C)c1ccccc1Sc1ccc(C2CC2C(=O)NCCCC(=O)O)c(Cl)c1Cl` (stereo in doubt) belongs 7.59.
In data set [2], `CC(C)c1ccccc1Sc1ccc(C2CC2C(=O)NCCC(=O)O)c(Cl)c1Cl` (stereo in doubt; 14a) [listing 1 of 2 here] gave an IC70 of 26 nM. Also, in data set [3], the IC80 came out at 54 nM.
Take `O=C(O)C1CCCN(c2ccccc2Sc2ccc(C3CC3C(=O)NCCCN3CCCC3=O)c(Cl)c2Cl)C1` (stereo in doubt; 29) [listing 1 of 2 here]: the pIC50 in data set [1] is 7.51; in data set [9], 6.19.
For `CC(C)c1ccccc1Sc1ccc(C2CC2C(=O)NCCC(=O)O)c(Cl)c1Cl` (stereo in doubt; 14a) [listing 2 of 2 here], the pIC50 in data set [1] was 8.10.
The molecule `CC(C)c1ccccc1Sc1ccc(C2CC2C(=O)N2CCC(C(=O)O)CC2)c(Cl)c1Cl` (stereo in doubt; 18a) [listing 2 of 2 here] gave a pIC50 in [1] of 8.05.
Consider `O=C(O)C1CCCN(c2ccccc2Sc2ccc(C3CC3C(=O)NCCCN3CCCC3=O)c(Cl)c2Cl)C1` (stereo in doubt; 29) [listing 2 of 2 here], for which the 70% effect concentration (IC70) in data set [2] amounted to 97 nM; in [4] it was 2100 nM. Further, the IC80 in data set [3] turned out to be 142 nM; in data set [5] it was 3200 nM.
In data set [2], `CC(C)c1ccccc1Sc1ccc(C2CC2C(=O)NCCCN2CCCC2=O)c(Cl)c1Cl` (stereo in doubt; 12a) [listing 2 of 2 here] came in with a 70% effect concentration (IC70) of 40 nM. Besides, in [3], the concentration for an effect of 80% (IC80) was 63 nM.

Source of the values: ChEMBL document CHEMBL1134036, “Discovery and SAR of diarylsulfide cyclopropylamide LFA-1/ICAM-1 interaction antagonists” (Bioorg Med Chem Lett, 2001).
